The results in this text go back to patent US20130237582A1, “PHARMACEUTICAL COMBINATION OF PACLITAXEL AND A CDK INHIBITOR” (Piramal Enterprises Limited, priority 2010, published 2013).

In one experiment the test system is HUVEC. In words: Endothelial cell tube formation assay. It counts as cell-based, human. From the text:
The Tube Formation Assay represents a simple but powerful model for studying inhibition and induction of angiogenesis. The assay relies on the endothelial cells' ability to form distinct blood-vessel like tubules in an extracellular matrix (BD Matrigel™ Matrix, USA) where they can subsequently be visualized by microscopy. It enables analysis of angiogenic tubules in a 3 dimensional matrix that better resembles the native physiological environment.
Confluent HUVEC (Human umbilical vein endothelial cells) were cultured with above mentioned endothelial medium to desired confluence. For HUVEC 60-80% confluence is recommended.
Endothelial cell suspensions were prepared by trypsinizing the cell monolayers and resuspending the cells in culture medium with 5-10% serum. (0.5−1)×10^6 cells per 180 μL of cell suspension were added (per well of 24 well plate) to the medium (BD Matrigel Matrix) which, had been thawed at 4° C. This suspension was then added to the plates and kept for incubation. The cells were allowed to adhere for 2-3 h and then Compound A (1 μM), Rotenone (1 μM) (Sigma-Aldrich, USA) and Topotecan (3 μM) (Sigma-Aldrich, USA) (20 μL of 10× stocks) were added to the respective wells. DMSO was used as the control. After 24-48 h of incubation the cells were observed under a phase contrast microscope (Zeiss Axio Observer, Germany) for tube formation and angiogenesis.

A further experiment relates to PARP. Nature of the experiment: Western blot for PARP cleavage in MDA-MB-468. To be noted: 1.5 μM and 5 μM, 24 h. Type of experiment: cell-based, human. How it is done: (§1) Correlation of PARP activity and cell cycle proteins cyclin D1, total Rb and pRb 780 were studied in two TNBC cell lines viz. MDA-MB-468 and MDA-MB-231. MDA-MB-231 and MDA-MB-468 cells were seeded in RPMI 1460 medium with 10% FCS in […] tissue culture flask and incubated for 24 h. These cells were treated at 1.5 μM and 5 μM Compound A for 24 h. The cells were harvested (trypsinised) and lysed using lysis buffer. Western blotting was carried out (Molecular Cancer […], 2007, 6, 918-925) using specific antibody to PAR, PARP, cyclin D1, CDK4 and pRb Ser 780.

Experiment [1] has as its target T1, CDK4-D1 (Cyclin D1 and CDK4) (Homo sapiens, UniProt P11802).
T1 construct: endogenous in cells; host or cells: MCF-7 (serum-starved, synchronized)
Nature of the experiment: CDK4 kinase activity after immunoprecipitation from MCF-7 cells. It counts as cell-based. To be noted: synchronized MCF-7; 1.5 μM; 3, 6, 9 and 12 h. How it is done:
For immunoprecipitation assay, the MCF-7 cells were synchronized by serum starvation. These cells were treated with Compound A at 1.5 μM at various time points viz. 3 h, 6 h, 9 h and 12 h. Cells were harvested (trypsinised) and lysed using lysis buffer, and protein content was estimated. CDK4-D1 (Cyclin D1 and CDK4) was purified from the lysate by immunoprecipitation using specific antibody to CDK4. Immune complex was further purified using Protein A sepharose beads (Sigma Aldrich, USA). Immune complex was used to determine CDK4 activity using pRb as a substrate and ^32P labelled ATP (BRIT, India). Reaction mixed was applied to SDS-PAGE followed by transfer and autoradiography.

The subject of a further experiment is VEGF. Nature of the experiment: VEGF reporter gene based assay (M-9 cells). As to conditions: Homo sapiens, hypoxia, 20-24 h, read-out: IC50 for VEGF inhibition under hypoxia. It counts as cell-based. How it is done: A cell line M-9 is MDA-MB-231 which is stably co-transfected with the VEGF-Luc construct (VEGF promoter in pGL2-basic) and a plasmid containing the Geneticin (G418) resistance gene which forms VEGF promoter reporter gene. The expression of the reporter gene in the clone cells, as measured by luciferase activity, is stable.
The effect of Compound A on VEGF inhibition was evaluated using the VEGF reporter gene based assay.
Lysis Assay Buffer (1×) • Tris-Phosphate (pH 7.8)-125 mM, DTT-10 mM, EDTA-10 mM, Glycerol-50% and Triton X-100-5%.
Luciferase Assay Reagent (LAR) • Luciferase Assay Buffer-8 mL, 530 μM ATP-530 μL, 270 μM CoA-1 mL and 170 μM Luciferin-1 mL.
Luciferase Assay Buffer (LAB) (1×) • Tricin (pH 7.8)-20 mM, Magnesia Alba-1.07 mM, MgSO4-2.67 mM, EDTA-0.1 mM and DTT-33.3 mM. ATP Stock made in LAB=5.85 mg/mL CoA Stock made in LAB=2.1 mg/mL Luciferin Stock made in LAB=1.5 mg/mL
1. M-9 cells were sub-cultured and maintained in RPMI-1640 Medium with supplement of 10% FBS, and 4 μL/ml G418 (Stock 100 mg/mL) in a humidified incubator at 37° C. and 5% CO2. 2. Cells were seeded at density of 3×10^4 cells/well in 180 μL volume in tissue culture grade 96 well white plates as well as transparent plates and allowed to adhere for 16-20 h in humidified CO2 incubator (5% CO2) at 37° C. A total of two sets of plates were made, as the incubation conditions are different. 3. Compound A, Sutent® and BSI-201 were diluted in medium serially so that final desired concentrations are achieved in the respective wells. (not more than 0.5% concentration of DMSO in the wells). 4. INCUBATION CONDITIONS: One set of plates are incubated under ambient atmospheric condition with 5% CO2, referred hereafter as NORMOXIC/OXIC PLATE. […] To all the wells, 100 μL Luciferase Assay Reagent (LAR) are added, plates are immediately read for Luminescence on TOPCOUNT™ (Packard, USA). The percentage inhibitions and Inhibitory Concentration (IC50) or Effective Concentration (EC50) are calculated in comparison with Control (untreated) values. […]

In another experiment the test system is cyclin D1. Nature of the experiment: Western blot of cell cycle proteins in MDA-MB-231. Type of experiment: cell-based, human. As to conditions: 1.5 μM and 5 μM, 24 h. How it is done:
as §1

For a further experiment, the system named is CDK4. Nature of the experiment: Western blot of cell cycle proteins in MDA-MB-231. As to conditions: 1.5 μM and 5 μM, 24 h. Type of experiment: cell-based, human. How it is done: as §1
The test system of the next experiment is pRb Ser 780. Nature of the experiment: Western blot of cell cycle proteins in MDA-MB-231. Type of experiment: cell-based, human. As to conditions: 1.5 μM and 5 μM, 24 h. How it is done:
as §1

T1 sequence (P11802 2-303 limits assumed): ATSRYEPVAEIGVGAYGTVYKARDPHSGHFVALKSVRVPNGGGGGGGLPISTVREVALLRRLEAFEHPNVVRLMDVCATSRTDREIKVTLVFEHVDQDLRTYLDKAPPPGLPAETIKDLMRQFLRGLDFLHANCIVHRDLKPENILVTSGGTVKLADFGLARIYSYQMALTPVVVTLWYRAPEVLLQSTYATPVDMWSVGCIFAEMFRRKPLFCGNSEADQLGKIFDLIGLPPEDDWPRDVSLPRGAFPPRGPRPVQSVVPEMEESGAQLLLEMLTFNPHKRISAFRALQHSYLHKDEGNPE
T1 sequence (P24385 whole entry partner): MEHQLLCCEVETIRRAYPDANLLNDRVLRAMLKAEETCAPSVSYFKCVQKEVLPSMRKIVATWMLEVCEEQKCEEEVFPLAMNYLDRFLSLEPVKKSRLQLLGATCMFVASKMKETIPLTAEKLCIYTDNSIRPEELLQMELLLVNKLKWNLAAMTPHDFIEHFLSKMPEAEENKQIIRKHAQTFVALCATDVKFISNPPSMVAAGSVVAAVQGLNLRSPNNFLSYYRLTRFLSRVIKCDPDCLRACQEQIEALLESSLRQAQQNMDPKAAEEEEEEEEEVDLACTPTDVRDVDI

Consider `CN1CC[C@@H](c2c(O)cc(O)c3c(=O)cc(-c4ccccc4Cl)oc23)[C@@H]1CO.Cl` [Compound A, (+)-trans-2-(2-Chloro-phenyl)-5,7-dihydroxy-8-(2-hydroxymethyl-1-methyl-pyrrolidin-3-yl)-chromen-4-one hydrochloride], for which the “tube formation inhibition compared with standards” value in the experiment on HUVEC (1 μM vs Rotenone 1 μM and Topotecan 3 μM) is “comparable to Rotenone (standard VEGF inhibitor) and better than Topotecan”. In the experiment on HUVEC (HUVEC in Matrigel, 1 μM, 24-48 h), the endothelial tube formation entry is on record as “effectively inhibited endothelial tube formation”. For the same molecule, the PARP cleavage entry in the experiment on PARP is on record as “PARP cleavage was prominent”. Further, the CDK4 kinase activity entry in experiment [1] is on record as “Decrease in CDK4 kinase activity in cell-based assay was seen as early as 3 h onwards”. Moreover, the IC50 with VEGF turned out to be 310 nM. In addition, the “cyclin D1 level” value with cyclin D1 is “dose dependent decrease”. Moreover, the CDK4 level result with CDK4 is given as “dose dependent decrease”. For the same molecule, in the experiment on pRb Ser 780, the pRb level entry is listed as “dose dependent decrease”.
